Drawing on patent publication US6602889B1, “5-heteroaryl substituted indoles” (H. Lundbeck A.S., priority 1998, dated 2003), this text covers IC50 and melting point for one compound.

Series [1] has as its target T1, serotonin S2 (5-HT2A) receptors (Rattus norvegicus, UniProt P14842).
T1 construct: Male Wistar (Mol:Wist) rats (125-250 g) are sacrificed and cortical tissue is dissected and weighed; from tissue; host or cells: rat cortex membranes (male Wistar rats)
Briefly: Inhibition of 3H-ketanserin binding to serotonin S2 (5-HT2A) receptors in rat cortex in vitro. To be noted: 3H-ketanserin 0.5 nM, membranes from rat cortex; read-out: IC50 values in nM, 5-HT2A. The protocol:
Inhibition of ^3H-Ketanserin Binding to Serotonin S2 (5-HT2Å) Receptors in Rat Cortex in vitro
By this method the inhibition by drugs of the binding of ^3H-ketanserin (0.5 nM) to serotonin S2 (5-HT2) receptors in membranes from rat cortex is determined in vitro.
The tissue is homogenized (Ultra Turrax, 10 sec) in 10 mL of ice cold 50 mM tris buffer pH 7.7 (at 25° C.). The centrifuge glassware used in this step has been rinsed by sonication for 10 min in ethanol. The homogenate is centrifuged twice at 20,000 g for 10 min. at 4° C., with rehomogenization of the pellet in 10 mL icecold buffer. The final pellet is homogenized in 250 vol (w/v) icecold buffer.
Incubation tubes (96 deep well titer plate) kept on ice receive […] of ^3H ketanserin (final concentration 0.5 nM).
The binding experiment is initiated by addition of […] of tissue suspension (final tissue content corresponds to 4 mg original tissue) and by placing the 96 deep well titer plate in a 37° C. water bath. All tests are made in triplicates.
After incubation for 30 min, the samples are filtered on a Brandel harvester under vacuum (18 inch. Hg) through printed filter mat B (13 mm). Titerplate and filter are washed 2×10 sec. flow 50 L/h with ice cold buffer.
The printed filter mat with purred labelled tissue are dried for 1 h at 110° C. and hereafter placed in a sample bag with Meltilex B/HS 14.5 g and melted together on the T-tray heat seal.
Specific binding is obtained by subtracting the nonspecific binding in the presence of 1 mM mianserin.
(§1) For determination of the inhibition of binding, five concentrations of drugs covering 3 decades are used.
^3H-ketanserin=(ethylene-^3H)-ketanserin hydrochloride from New England Nuclear, specific activity 60-80 Ci/mmol.

Another series deals with T2, dopamine D2 receptors (Rattus norvegicus, UniProt P61169).
T2 construct: Male Wistar (Mol:Wistar) rats (125-250 g) are sacrificed and striatal tissue is dissected and weighed; from tissue; host or cells: rat corpus striatum membranes (male Wistar rats)
The series is described as follows: Inhibition of 3H-spiperone binding to dopamine D2 receptors in rat corpus striatum in vitro. To be noted: 3H-spiperone 0.5 nM, membranes from rat corpus striatum; read-out: IC50 values in nM, D2. The method, then:
Inhibition of ^3H-Spiperone Binding to Dopamine D2 Receptors in Rat Corpus Striatum in vitro
By this method, the inhibition by drugs of the binding of ^3H -spiperone (=^3H-spiro-peridol) (0.5 nM) to dopamine D-2 receptors in membranes from rat corpus striatum is determined in vitro. […] Pharmacol. Toxicol. […] This is a test for dopamine D2 receptor binding affinity in vitro.
The tissue is homogenized (Ultra Turrax, 10 sec.) in 10 mL of ice-cold 50 mM K-phosphate buffer pH 7.4 (at 25° C.). The homogenate is centrifuged twice at 20,000 g for 10 min at 4° C. with rehomogenization of the pellet in 10 mL ice-cold buffer. The final pellet is homogenized in 1300 vol (w/v) ice-cold buffer.
The binding experiment is initiated by addition of 100 μl of ^3H-spiperone (final concentration 0.5 nM) and by placing the tubes in a 37° C. water bath. […] The tubes are rinsed with 5 mL ice-cold buffer which are then poured on the filters. Thereafter, the filters are washed with 2×5 mL of buffer. The filters are placed in counting vials and 4 mL of appropriate scintillation fluid (e.g. Picofluor ™15) are added. After shaking for 1 h and storage for 2 hrs in the dark, the content of radioactivity is determined by liquid scintillation counting. Specific binding is obtained by subtracting the nonspecific binding in the presence of 10 μM of 6,7-ADTN.
For determination of the inhibition of binding, five concentrations of drugs covering 3 orders of magnitude are used.
England, specific activity 15-25 Ci/mmol.

In another series the target is α1-adrenoceptors. Briefly: Inhibition of 3H-prazosin binding to α1-adrenoceptors in rat brain in vitro. The following applies: 3H-prazosin 0.25 nM, membranes from rat brain. The protocol:
Method and results in Hyttel & Larsen, J. Neurochem.
The tissue is homogenized (Ultra Turrax, 10 se) in 10 mL of ice cold 50 mM tris buffer pH 7.7 (at 25° C.). The homogenate is centrifuged twice at 20,000 g for 10 min at 4° C. with rehomogenization of the pellet in 10 ml icecold buffer. The final pellet is homogenized in 250 vol (w/v) icecold buffer.
The binding experiment is initiated by addition of […] of tissue suspension (final tissue content corresponds to 3 mg original tissue) and by placing the 96 deep well titer plate in a 25 ° C. water bath. All tests are made in triplicates. After incubation for 20 min, the samples are filtered on a Brandel harvester under vacuum (18 inch. Hg) through printed filtermat B (13 mm). Titerplates and filter are washed 1×10 sec flow 50 L/h with ice cold buffer.
The filter mat is dried for 1 h at 110° C. and then placed in a sample bag with Meltilex B/HS (14.5 g) and melted together on the T-Tray heat sealer.
as §1

T2 sequence (P61169 whole entry): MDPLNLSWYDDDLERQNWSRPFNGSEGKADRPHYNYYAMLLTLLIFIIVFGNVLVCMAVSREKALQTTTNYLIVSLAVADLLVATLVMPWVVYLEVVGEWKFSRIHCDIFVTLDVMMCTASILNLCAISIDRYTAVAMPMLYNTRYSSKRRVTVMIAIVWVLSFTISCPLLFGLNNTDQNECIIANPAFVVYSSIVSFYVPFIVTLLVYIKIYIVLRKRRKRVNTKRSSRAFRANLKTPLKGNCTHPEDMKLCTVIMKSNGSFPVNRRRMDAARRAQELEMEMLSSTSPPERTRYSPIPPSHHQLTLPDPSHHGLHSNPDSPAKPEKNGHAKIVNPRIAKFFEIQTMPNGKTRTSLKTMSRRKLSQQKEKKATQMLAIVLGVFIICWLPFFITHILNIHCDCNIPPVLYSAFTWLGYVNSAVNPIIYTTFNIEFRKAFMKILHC
T1 sequence (P14842 whole entry): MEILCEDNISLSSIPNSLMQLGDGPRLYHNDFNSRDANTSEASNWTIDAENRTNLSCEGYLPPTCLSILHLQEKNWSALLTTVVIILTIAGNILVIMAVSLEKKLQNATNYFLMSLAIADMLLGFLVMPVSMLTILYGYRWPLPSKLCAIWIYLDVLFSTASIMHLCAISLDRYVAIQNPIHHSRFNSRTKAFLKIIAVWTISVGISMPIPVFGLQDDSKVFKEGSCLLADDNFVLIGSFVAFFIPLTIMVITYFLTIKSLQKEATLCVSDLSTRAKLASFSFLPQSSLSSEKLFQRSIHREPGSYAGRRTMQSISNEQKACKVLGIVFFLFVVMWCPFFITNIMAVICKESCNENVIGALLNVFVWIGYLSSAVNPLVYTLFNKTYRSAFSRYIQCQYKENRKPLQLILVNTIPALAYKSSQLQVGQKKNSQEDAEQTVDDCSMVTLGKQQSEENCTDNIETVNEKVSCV

On to `Cn1nnnc1Cc1ccc2c(c1)c(C1=CCN(CCN3CCNC3=O)CC1)cn2-c1ccc(F)cc1` [Compound 22d, 1-[2-[4-[1-(4-fluorophenyl)-5-[(1-methyltetrazol-5-yl)methyl]-1H-indol-3-yl]-1,2,3,6-tetrahydropyridin-1-yl]ethyl]-2-imidazolidinone], for which the melting point is 174 to 176 °C. In series [1], the IC50 amounted to 18 nM. Also, on dopamine D2 receptors, the IC50 came to 5 nM. The compound further yielded a half-inhibitory concentration (IC50) on α1-adrenoceptors of 0.72 nM.

As a reminder, the IC50 is the concentration that inhibits the measured activity by half. By melting point is commonly meant the temperature, or range, at which the solid turns liquid.
